Our source for the Km, Vmax and IC50 values is ChEMBL document CHEMBL1124621, “Inhibition of mammalian folylpolyglutamate synthetase and human dihydrofolate reductase by 5,8-dideaza analogues of folic acid and aminopterin bearing a terminal L-ornithine” (J Med Chem, 1989).

The species named for series [1] is Sus scrofa. As to the kind of experiment: (§1) Km for hog liver folyl-poly-glutamate synthetase was evaluated. The format is ADME. The note with it: pig.
For series [2], the species on record is Sus scrofa. As to the kind of experiment: Maximal elimination rate of metabolism for hog liver folyl-poly-glutamate synthetase was evaluated. The note with it: pig. Also noted: unit not given here. The format is ADME.
Series [3] relates to folylpolyglutamate synthetase. The series is described as §1. The format is ADME, Sus scrofa. The settings on record: pig, hog liver folylpolyglutamate synthetase.
A further series deals with T1, Dihydrofolate reductase (Homo sapiens, UniProt P00374).
T1 sequence (P00374 whole entry): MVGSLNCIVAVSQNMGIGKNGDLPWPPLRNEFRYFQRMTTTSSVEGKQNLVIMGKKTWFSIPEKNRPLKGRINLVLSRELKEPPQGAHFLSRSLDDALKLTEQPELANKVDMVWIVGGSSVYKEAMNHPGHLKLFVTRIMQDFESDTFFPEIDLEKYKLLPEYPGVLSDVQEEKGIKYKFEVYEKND
As to the kind of experiment: Inhibition of human dihydrofolate reductase. The settings on record: read-out: I50.

A word on the Km: it is the concentration of substrate that gives half-maximal velocity. In the case of `Nc1nc2ncc(CNc3ccc(C(=O)N[C@@H](CCC(=O)O)C(=O)O)cc3)nc2c(=O)[nH]1` (stereo in doubt; form 2) [FOLIC ACID], the Km in the series listed under Sus scrofa [1] amounted to 93 µM. Also, in the series listed under Sus scrofa [2], the Vmax was 61.
As for `Nc1nc(O)c2cc(COc3ccc(C(=O)NC(CCC(=O)O)C(=O)O)cc3)ccc2n1` (stereo not drawn), the Km in series [3] was 22 µM. The Vmax in the series filed under Sus scrofa [2] is 25.
`Nc1nc(O)c2c(Cl)c(CNc3ccc(C(=O)NC(CCC(=O)O)C(=O)O)cc3)ccc2n1` (stereo not drawn): the IC50 on Dihydrofolate reductase came out at 100 nM. The Michaelis-Menten constant (Km) in series [3] was 0.3 µM. Further, in the series filed under Sus scrofa [2], the Vmax worked out at 68.
Regarding `NCCCC(NC(=O)c1ccc(OCc2ccc3nc[nH]c(=O)c3c2)cc1)C(=O)O` (stereo not drawn), the IC50 at Dihydrofolate reductase amounted to 3800 nM.
As for `O=C(O)CCC(NC(=O)c1ccc(OCc2ccc3ncnc(O)c3c2)cc1)C(=O)O` (stereo not drawn), the Km in series [3] is 35 µM. The Vmax in the series filed under Sus scrofa [2] turned out to be 95.
The corresponding values for `Nc1nc(O)c2cc(CSc3ccc(C(=O)NC(CCC(=O)O)C(=O)O)cc3)ccc2n1` (stereo not drawn) are 15 µM and 33.
For the molecule `NCCCC(NC(=O)c1ccc(SCc2ccc3nc(N)[nH]c(=O)c3c2)cc1)C(=O)O` (stereo not drawn), the IC50 on Dihydrofolate reductase is 1500 nM.
Regarding `O=C(O)CCC(NC(=O)c1ccc(SCc2ccc3ncnc(O)c3c2)cc1)C(=O)O` (stereo not drawn), the Michaelis constant (Km) in series [3] amounted to 8.1 µM. Also, the Vmax in the series filed under Sus scrofa [2] was determined as 50.
Consider `Nc1nc2ncc(CNc3ccc(C(=O)N[C@@H](CCC(=O)O)C(=O)O)cc3)nc2c(=O)[nH]1` (stereo in doubt; form 1) [FOLIC ACID], for which, in the series filed under Sus scrofa [1], the Km worked out at 7.7 µM. Also, the Vmax in the series filed under Sus scrofa [2] stood at 100.
For `NCCCC(NC(=O)c1ccc(OCc2ccc3nc(N)nc(O)c3c2)cc1)C(=O)O` (stereo not drawn), the IC50 at Dihydrofolate reductase worked out at 530 nM.
Still for that read-out and setting: as for `NCCCC(NC(=O)c1ccc(NCc2ccc3nc(N)nc(N)c3c2Cl)cc1)C(=O)O` (stereo not drawn), the figure is 3 nM; as for `NCCCC(NC(=O)c1ccc(SCc2ccc3ncnc(O)c3c2)cc1)C(=O)O` (stereo not drawn), 3800 nM.
As for `Nc1nc(N)c2c(Cl)c(CNc3ccc(C(=O)NC(CCC(=O)O)C(=O)O)cc3)ccc2n1` (stereo not drawn), the Km in series [3] is 0.2 µM. The Vmax in the series listed under Sus scrofa [2] was 57.
Regarding `NCCCC(NC(=O)c1ccc(NCc2ccc3nc(N)[nH]c(=O)c3c2Cl)cc1)C(=O)O` (stereo not drawn), on Dihydrofolate reductase, the IC50 is 430 nM.
